Each structure is given as a SMILES string.

Here are results for one compound from ChEMBL document CHEMBL1148572, “1-((S)-2-aminopropyl)-1H-indazol-6-ol: a potent peripherally acting 5-HT2 receptor agonist with ocular hypotensive activity” (J Med Chem, 2006).

In assay [1] the target is T1, GABA-A receptor; benzodiazepine site (Homo sapiens) (UniProt P14867+P18507+P48169+Q99928+P34903+Q8N1C3+P47869+P31644+Q16445). As to the kind of experiment: Inhibition of central benzodiazepine site on GABAA receptor at 1 nM. The class given is protein-complex assay.
The target in assay [2] is T1, GABA-A receptor; benzodiazepine site (Homo sapiens). Briefly: Inhibition of central benzodiazepine site on GABAA receptor at 100 nM. The class given is protein-complex assay.
For assay [3] the target is unchanged. As to the kind of experiment: Inhibition of central benzodiazepine site on GABAA receptor at 10 uM. The class given is protein-complex assay.
The target in assay [4] is Muscarinic acetylcholine receptor (Homo sapiens) (UniProt P20309+P08173+P11229+P08172+P08912). Briefly: Inhibition of non selective binding to muscarinic receptor at 10 uM. The class given is protein assay.
The nature of assay [5]: Inhibition of alpha-bungarotoxin insensitive nicotinic receptor at 10 uM.
The target in assay [6] is GABA-A receptor; agonist GABA site (Homo sapiens) (UniProt P14867+P47870+P28472+P48169+P34903+P18505+P47869+P31644+Q16445). Briefly: Inhibition of agonist site of GABAA receptor at 100 nM. The class given is functional.
Assay [7] has as its target Glutamate [NMDA] receptor (Homo sapiens) (UniProt Q05586+Q12879+Q13224+O15399+O60391+Q14957+Q8TCU5). Briefly: Inhibition of MK-801 site of glutamate receptor at 10 uM. The class given is protein-complex assay.
The target in assay [8] is T2, 5-hydroxytryptamine receptor 1A (Homo sapiens) (UniProt P08908).
T2 sequence (whole entry): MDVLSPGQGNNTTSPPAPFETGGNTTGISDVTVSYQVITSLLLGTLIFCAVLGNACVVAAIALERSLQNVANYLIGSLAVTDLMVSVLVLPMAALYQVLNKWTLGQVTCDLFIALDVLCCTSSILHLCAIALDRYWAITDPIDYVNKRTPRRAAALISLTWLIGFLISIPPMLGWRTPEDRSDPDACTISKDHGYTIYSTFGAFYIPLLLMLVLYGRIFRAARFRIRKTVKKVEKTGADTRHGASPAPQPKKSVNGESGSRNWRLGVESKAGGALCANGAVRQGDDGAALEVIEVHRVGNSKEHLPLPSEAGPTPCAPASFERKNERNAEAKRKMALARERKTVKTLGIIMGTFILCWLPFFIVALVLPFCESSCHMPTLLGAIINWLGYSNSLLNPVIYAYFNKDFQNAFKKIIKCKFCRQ
Briefly: Inhibition of forskolin activated adenylate cyclase at 10 uM. The class given is functional.

The target of assay [9] is T3, Cysteinyl leukotriene receptor 1 (Homo sapiens) (UniProt Q9Y271).
T3 sequence (whole entry): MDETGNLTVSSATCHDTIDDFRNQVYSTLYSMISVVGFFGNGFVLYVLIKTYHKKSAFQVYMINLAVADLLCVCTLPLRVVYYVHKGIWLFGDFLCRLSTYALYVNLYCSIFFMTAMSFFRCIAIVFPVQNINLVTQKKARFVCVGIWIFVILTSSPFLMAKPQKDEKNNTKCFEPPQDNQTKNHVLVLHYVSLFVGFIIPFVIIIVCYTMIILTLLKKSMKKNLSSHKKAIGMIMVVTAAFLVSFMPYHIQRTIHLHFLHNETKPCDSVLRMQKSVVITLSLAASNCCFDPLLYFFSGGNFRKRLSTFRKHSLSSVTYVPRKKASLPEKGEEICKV
As to the kind of experiment: Inhibition of leukotriene D4 at 100 nM.

Assay [10] concerns the target T3, Cysteinyl leukotriene receptor 1 (Homo sapiens). Briefly: Inhibition of leukotriene D4 at 10 uM.
Assay [11] addresses Epidermal growth factor receptor (Homo sapiens) (UniProt P00533). As to the kind of experiment: Inhibition of EGFR at 1 nM.
Assay [12] deals with Platelet-activating factor receptor (Homo sapiens) (UniProt P25105). Briefly: Inhibition of PAF at 1 nM.
Assay [13] has as its target T4, B2 bradykinin receptor (Homo sapiens) (UniProt P30411).
T4 sequence (whole entry): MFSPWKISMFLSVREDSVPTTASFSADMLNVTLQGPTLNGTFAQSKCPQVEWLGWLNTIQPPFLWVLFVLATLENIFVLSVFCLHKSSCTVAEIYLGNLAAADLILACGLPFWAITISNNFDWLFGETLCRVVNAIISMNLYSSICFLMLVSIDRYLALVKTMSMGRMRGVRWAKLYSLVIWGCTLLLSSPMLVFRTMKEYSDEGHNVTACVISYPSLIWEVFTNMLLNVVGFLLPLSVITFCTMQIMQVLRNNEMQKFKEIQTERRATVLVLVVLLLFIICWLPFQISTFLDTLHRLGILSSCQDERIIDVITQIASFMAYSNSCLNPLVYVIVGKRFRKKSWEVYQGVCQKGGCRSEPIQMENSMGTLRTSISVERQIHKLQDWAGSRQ
Briefly: Inhibition of bradykinin 2 receptor at 10 uM.

In assay [14] the target is Substance-P receptor (Homo sapiens) (UniProt P25103). As to the kind of experiment: Inhibition of neurokinin 1 receptor at 10 uM.
The nature of assay [15]: Inhibition of non selective binding to VIP at 1 nM.
For assay [16], the target named is Adenosine receptor (Homo sapiens) (UniProt P30542+P29275+P0DMS8+P29274). Briefly: Inhibition of non selective binding to adenosine receptor at 100 nM. The class given is protein assay.
Assay [17] addresses 5-hydroxytryptamine receptor 2A (Rattus norvegicus, UniProt P14842). The class given is tissue-based, Cerebral cortex.
In assay [18] the target is T5, 5-hydroxytryptamine receptor 2C (Rattus norvegicus, UniProt P08909).
T5 sequence (P08909 whole entry): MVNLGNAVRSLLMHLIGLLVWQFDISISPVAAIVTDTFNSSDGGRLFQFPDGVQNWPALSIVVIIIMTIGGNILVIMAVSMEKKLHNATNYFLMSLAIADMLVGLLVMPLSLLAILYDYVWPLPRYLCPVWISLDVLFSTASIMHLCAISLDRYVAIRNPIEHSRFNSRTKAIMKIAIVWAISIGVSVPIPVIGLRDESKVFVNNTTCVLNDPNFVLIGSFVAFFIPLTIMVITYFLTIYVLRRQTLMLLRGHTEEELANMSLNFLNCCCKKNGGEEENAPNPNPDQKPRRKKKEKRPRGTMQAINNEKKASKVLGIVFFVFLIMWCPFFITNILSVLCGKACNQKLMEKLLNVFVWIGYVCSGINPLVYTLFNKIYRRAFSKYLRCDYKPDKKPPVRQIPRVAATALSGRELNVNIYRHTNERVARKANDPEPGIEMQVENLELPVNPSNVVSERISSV
Briefly: Activity against recombinant rat 5HT2C mediated intracellular calcium mobilization by FLIPR in SR3T3 cells. Background: Calcium flux is commonly read through the fluorescence of an indicator in the cells.

Assay [19] deals with T6, 5-hydroxytryptamine receptor 1A (Homo sapiens, UniProt P08908).
T6 sequence (P08908 whole entry): T2 sequence (whole entry)
Briefly: Displacement of [3H]8-OH-DPAT from recombinant human 5HT1A receptor expressed in CHO cells. The class given is cell-based. In general terms: Displacement assays read how much labelled ligand stays bound in the presence of the test substance.

Assay [20] deals with 5-hydroxytryptamine receptor 6 (Homo sapiens, UniProt P50406). As to the kind of experiment: Inhibitory activity against 5HT6 receptor.
The target in assay [21] is Alpha-1A adrenergic receptor (Homo sapiens, UniProt P35348). Briefly: Inhibitory activity against adrenergic alpha-1A receptor.
Assay [22] concerns the target Sodium-dependent serotonin transporter (Homo sapiens, UniProt P31645). As to the kind of experiment: Inhibitory activity against SERT.
Assay [23] addresses Alpha-2B adrenergic receptor (Homo sapiens, UniProt P18089). As to the kind of experiment: Activity at adrenergic alpha-2B receptor expressed in opposum kidney OK cell by adenylyl cyclase assay. The class given is functional, cell-based.

Substance-P receptor (Homo sapiens), sequence (P25103 whole entry): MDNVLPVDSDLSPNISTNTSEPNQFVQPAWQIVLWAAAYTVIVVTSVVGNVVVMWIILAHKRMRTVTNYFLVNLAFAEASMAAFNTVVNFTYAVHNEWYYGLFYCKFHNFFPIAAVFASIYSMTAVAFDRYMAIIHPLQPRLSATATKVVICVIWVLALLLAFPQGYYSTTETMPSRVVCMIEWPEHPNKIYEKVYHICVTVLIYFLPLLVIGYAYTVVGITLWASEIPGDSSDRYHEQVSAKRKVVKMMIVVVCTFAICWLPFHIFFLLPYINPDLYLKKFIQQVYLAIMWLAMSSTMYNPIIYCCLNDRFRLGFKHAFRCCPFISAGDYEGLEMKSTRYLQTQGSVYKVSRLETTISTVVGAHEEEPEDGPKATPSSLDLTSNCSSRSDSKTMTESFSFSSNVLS
Alpha-2B adrenergic receptor, sequence (P18089 whole entry): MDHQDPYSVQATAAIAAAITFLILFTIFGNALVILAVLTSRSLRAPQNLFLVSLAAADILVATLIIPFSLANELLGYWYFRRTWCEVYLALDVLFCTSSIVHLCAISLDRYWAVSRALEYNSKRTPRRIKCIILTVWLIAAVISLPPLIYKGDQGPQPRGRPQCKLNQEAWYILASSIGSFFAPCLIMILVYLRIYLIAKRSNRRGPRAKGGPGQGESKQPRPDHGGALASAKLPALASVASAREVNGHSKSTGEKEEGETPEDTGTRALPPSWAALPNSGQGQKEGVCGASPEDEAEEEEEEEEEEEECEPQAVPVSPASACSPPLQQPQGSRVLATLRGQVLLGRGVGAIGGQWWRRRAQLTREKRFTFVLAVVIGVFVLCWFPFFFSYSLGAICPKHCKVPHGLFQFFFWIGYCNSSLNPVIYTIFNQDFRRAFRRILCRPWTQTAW
Sodium-dependent serotonin transporter, sequence (P31645 whole entry): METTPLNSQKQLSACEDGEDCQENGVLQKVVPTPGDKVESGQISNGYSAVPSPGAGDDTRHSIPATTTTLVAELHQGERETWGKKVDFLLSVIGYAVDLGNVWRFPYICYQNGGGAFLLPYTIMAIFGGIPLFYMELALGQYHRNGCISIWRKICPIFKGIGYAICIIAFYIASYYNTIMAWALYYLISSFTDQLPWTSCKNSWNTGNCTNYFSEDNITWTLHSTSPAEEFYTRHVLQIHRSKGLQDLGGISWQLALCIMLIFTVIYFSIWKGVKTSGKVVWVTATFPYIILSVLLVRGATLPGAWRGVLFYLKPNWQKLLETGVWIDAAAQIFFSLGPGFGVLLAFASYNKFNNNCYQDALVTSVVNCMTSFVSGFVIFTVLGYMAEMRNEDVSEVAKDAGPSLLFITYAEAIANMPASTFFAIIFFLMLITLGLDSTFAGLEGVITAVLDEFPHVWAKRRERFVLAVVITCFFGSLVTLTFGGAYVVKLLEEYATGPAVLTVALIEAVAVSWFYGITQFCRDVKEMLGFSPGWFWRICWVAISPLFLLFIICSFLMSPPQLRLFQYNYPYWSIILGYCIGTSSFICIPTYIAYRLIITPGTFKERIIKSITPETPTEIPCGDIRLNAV
5-hydroxytryptamine receptor 6, sequence (P50406 whole entry): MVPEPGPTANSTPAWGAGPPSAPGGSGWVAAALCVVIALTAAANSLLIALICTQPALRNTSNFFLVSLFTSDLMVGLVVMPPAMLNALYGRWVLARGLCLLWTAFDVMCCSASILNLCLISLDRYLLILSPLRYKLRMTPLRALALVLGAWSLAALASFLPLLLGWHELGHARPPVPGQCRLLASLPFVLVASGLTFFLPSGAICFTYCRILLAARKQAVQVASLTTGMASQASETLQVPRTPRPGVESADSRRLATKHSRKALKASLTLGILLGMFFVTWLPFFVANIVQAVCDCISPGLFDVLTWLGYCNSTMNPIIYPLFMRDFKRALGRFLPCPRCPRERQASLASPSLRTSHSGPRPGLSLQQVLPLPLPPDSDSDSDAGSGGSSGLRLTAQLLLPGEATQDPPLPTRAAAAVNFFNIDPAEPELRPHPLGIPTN
Epidermal growth factor receptor (Homo sapiens), sequence (P00533 whole entry): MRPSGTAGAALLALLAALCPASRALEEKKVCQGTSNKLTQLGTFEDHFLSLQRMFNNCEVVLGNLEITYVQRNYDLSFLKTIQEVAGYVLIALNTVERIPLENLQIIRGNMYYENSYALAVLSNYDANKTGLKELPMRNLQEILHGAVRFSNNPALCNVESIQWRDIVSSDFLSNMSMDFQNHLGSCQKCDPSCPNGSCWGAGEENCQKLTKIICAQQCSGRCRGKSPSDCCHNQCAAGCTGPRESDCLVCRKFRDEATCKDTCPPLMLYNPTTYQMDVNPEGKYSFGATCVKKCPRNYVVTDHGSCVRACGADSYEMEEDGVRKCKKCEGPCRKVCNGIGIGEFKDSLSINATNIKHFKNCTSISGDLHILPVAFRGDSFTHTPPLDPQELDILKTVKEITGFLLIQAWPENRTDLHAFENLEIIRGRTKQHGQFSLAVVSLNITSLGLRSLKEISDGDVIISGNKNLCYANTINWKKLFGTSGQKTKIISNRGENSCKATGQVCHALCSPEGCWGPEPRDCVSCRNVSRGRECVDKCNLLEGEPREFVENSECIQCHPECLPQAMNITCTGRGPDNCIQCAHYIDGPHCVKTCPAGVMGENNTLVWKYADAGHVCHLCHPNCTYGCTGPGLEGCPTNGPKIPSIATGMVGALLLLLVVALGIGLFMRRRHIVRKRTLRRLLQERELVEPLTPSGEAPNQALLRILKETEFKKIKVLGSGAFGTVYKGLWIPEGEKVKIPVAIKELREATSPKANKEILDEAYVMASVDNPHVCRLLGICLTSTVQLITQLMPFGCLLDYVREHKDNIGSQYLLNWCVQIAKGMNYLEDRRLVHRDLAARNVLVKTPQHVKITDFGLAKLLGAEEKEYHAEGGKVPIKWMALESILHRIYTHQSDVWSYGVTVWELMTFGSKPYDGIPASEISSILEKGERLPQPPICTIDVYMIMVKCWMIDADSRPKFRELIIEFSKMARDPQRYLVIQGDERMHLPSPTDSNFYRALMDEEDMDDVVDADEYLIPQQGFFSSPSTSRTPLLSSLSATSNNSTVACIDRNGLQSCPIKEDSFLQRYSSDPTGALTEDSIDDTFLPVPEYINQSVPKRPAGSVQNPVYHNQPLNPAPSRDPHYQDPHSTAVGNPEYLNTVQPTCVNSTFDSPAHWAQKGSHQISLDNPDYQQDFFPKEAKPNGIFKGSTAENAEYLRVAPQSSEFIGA
Adenosine receptor (Homo sapiens), sequence (P0DMS8 whole entry, looked up): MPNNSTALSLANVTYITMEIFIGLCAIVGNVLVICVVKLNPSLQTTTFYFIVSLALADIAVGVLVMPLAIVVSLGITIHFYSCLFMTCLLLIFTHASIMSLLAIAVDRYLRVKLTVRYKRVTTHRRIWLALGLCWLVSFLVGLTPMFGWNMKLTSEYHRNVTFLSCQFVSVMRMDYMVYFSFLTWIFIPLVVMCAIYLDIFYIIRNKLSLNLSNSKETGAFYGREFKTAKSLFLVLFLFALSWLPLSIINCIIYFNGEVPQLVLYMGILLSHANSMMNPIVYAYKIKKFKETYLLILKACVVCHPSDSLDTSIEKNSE
Adenosine receptor (Homo sapiens), sequence (P29274 whole entry, looked up): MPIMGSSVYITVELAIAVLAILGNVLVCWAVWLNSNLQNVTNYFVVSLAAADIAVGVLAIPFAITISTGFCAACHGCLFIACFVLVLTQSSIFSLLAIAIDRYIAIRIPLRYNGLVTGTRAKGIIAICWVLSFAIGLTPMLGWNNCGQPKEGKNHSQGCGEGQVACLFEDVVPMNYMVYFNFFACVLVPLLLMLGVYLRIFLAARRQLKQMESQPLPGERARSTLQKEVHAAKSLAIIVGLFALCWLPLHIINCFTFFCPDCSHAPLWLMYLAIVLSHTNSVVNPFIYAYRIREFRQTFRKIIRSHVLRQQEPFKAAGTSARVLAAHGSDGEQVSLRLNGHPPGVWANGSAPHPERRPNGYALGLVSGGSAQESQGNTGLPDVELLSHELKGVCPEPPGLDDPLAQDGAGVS
Adenosine receptor (Homo sapiens), sequence (P29275 whole entry, looked up): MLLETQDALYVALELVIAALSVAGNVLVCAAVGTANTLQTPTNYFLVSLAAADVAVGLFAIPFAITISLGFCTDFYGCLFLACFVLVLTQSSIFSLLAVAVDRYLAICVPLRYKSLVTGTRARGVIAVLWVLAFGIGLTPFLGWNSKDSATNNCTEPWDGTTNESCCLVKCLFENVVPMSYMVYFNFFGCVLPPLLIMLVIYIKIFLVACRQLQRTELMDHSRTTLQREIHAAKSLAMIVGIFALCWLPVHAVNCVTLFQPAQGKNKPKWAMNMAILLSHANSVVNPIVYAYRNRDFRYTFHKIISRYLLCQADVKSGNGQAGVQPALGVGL
Adenosine receptor (Homo sapiens), sequence (P30542 whole entry, looked up): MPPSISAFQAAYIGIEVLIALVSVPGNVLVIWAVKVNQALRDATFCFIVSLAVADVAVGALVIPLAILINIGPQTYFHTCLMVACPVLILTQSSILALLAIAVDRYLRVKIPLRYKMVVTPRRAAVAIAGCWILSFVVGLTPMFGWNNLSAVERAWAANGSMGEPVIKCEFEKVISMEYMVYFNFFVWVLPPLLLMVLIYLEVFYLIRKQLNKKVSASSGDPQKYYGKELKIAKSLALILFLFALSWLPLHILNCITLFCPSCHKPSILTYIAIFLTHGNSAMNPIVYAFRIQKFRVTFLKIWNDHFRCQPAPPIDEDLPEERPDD
Alpha-1A adrenergic receptor, sequence (P35348 whole entry): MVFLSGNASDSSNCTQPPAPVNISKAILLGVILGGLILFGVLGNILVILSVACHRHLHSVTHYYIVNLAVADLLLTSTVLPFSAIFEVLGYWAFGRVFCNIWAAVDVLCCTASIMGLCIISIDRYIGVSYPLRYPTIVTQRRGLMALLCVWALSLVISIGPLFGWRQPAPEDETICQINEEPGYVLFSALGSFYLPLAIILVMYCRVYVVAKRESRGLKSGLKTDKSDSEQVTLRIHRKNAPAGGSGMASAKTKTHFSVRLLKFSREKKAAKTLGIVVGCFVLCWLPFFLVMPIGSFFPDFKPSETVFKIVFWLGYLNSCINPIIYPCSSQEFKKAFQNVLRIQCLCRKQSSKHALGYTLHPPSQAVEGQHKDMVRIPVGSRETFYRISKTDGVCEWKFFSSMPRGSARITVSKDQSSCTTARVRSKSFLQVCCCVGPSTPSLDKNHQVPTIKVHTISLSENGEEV

As for `C[C@H](N)Cn1ncc2ccc(O)cc21`, the inhibition (usually the drop in the measured response relative to a control, in per cent) in assay [1] is 19.6%; in assay [2], 18.8%; in assay [3], 22.8%; in [4], 12.2%; in assay [5], 7.7%; in assay [6], -0.91%. Further, the inhibition is 15.1% in assay [7]; 4.1% in assay [8]; 7.43% in assay [9]; 0.07% in assay [10]; 1.44% in assay [11]; -6.53% in [12]. In addition, the inhibition in assay [13] amounted to 0.11%; in assay [14], 33%; in assay [15], 5.87%; in [16], 13.6%. Besides, the IC50 – broadly, the point on the concentration scale where inhibition reaches its midpoint – in [17] stood at 0.58 nM. For the same compound, the EC50 (in general, the concentration that produces a half-maximal response) in [18] was 3.7 nM; in assay [23], 3050 nM. Further, the Ki (as a rule, a dissociation constant, usually derived from enzyme kinetics or from competition with a known ligand) was 141 nM in [19], more than 10000 nM in [20], more than 30000 nM in assay [21] and more than 10000 nM in assay [22].
